Experimental data from PubChem BioAssay AID248 (DTP/NCI, 2004).
Several values for one entry are separate records, joined by “and”; a condition that tells them apart may be missing. Equal values may be shown once. Inconclusive results and toxic doses are left out.

Tested on: L1210 leukemia ip in BDF1 mice, survival T/C
Assay: NCI In Vivo Anticancer Drug Screen. Data for tumor model L1210 Leukemia (intraperitoneal) in B6D2F1 (BDF1) mice
Details: endpoint: mean survival time, higher = longer survival
Outline: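 Tumor was transplanted into mice, which were then dosed with test compound or vehicle alone. Survival was recorded for each group, and the treated figure was expressed relative to the control figure.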

[1] = dose: 25.0 mg/kg/injection, schedule: Q04DX002 (ip), vehicle: saline with Tween-80
[2] = dose: 50.0 mg/kg/injection, schedule: Q01DX009 (ip), vehicle: saline
[3] = dose: 50.0 mg/kg/injection, schedule: Q04DX002 (ip), vehicle: saline with Tween-80
[4] = dose: 100.0 mg/kg/injection, schedule: Q01DX009 (ip), vehicle: saline with Tween-80
[5] = dose: 100.0 mg/kg/injection, schedule: Q01DX009 (ip), vehicle: saline
[6] = dose: 100.0 mg/kg/injection, schedule: Q04DX003 (ip), vehicle: saline with Tween-80
[7] = dose: 200.0 mg/kg/injection, schedule: Q04DX002 (ip), vehicle: saline with Tween-80
[8] = dose: 100.0 mg/kg/injection, schedule: Q04DX003 (ip), vehicle: saline
[9] = dose: 200.0 mg/kg/injection, schedule: Q01DX009 (ip), vehicle: saline
[10] = dose: 200.0 mg/kg/injection, schedule: Q04DX003 (ip), vehicle: saline
[11] = dose: 400.0 mg/kg/injection, schedule: Q01DX009 (ip), vehicle: saline
[12] = dose: 400.0 mg/kg/injection, schedule: Q04DX003 (ip), vehicle: saline
[13] = dose: 100.0 mg/kg/injection, schedule: Q04DX002 (ip), vehicle: saline with Tween-80
[14] = dose: 200.0 mg/kg/injection, schedule: Q01DX009 (ip), vehicle: saline with Tween-80
[15] = dose: 400.0 mg/kg/injection, schedule: Q04DX002 (ip), vehicle: saline with Tween-80
[16] = dose: 100.0 mg/kg/injection, schedule: Q01DX009 (ip), vehicle: Klucel (hydroxypropylcellulose) (HPC)
[17] = dose: 200.0 mg/kg/injection, schedule: Q01DX009 (ip), vehicle: Klucel (hydroxypropylcellulose) (HPC)
[18] = dose: 100.0 mg/kg/injection, schedule: Q01DX001 (ip), vehicle: carboxymethylcellulose (CMC)
[19] = dose: 200.0 mg/kg/injection, schedule: Q01DX001 (ip), vehicle: carboxymethylcellulose (CMC)
[20] = dose: 400.0 mg/kg/injection, schedule: Q01DX001 (ip), vehicle: carboxymethylcellulose (CMC)
[21] = dose: 100.0 mg/kg/injection, schedule: Q01DX001 (ip), vehicle: saline
[22] = dose: 200.0 mg/kg/injection, schedule: Q01DX001 (ip), vehicle: saline

COc1ccc(Cl)cc1NC(=O)Oc1ccccc1C(N)=O
T/C (dose: 25.0 mg/kg/injection, schedule: Q01DX009 (ip), vehicle: saline): 106 % of control and 113 % of control | T/C [1]: 104 % of control and 112 % of control | T/C [2]: 102 % of control | T/C [3]: 102 % of control and 91 % of control | T/C (dose: 100.0 mg/kg/injection, schedule: Q01DX001 (ip), vehicle: saline with Tween-80): 107 % of control | T/C [4]: 86 % of control | T/C [5]: 98 % of control | T/C [6]: 104 % of control | T/C (dose: 200.0 mg/kg/injection, schedule: Q01DX001 (ip), vehicle: saline with Tween-80): 108 % of control | T/C [7]: 110 % of control

COc1cc2c(cc1OC)C1c3cc(OC)c(OC)cc3CC(=O)N1CC2 (configuration not stated)
T/C [2]: 87 % of control | T/C [5]: 104 % of control | T/C [8]: 100 % of control | T/C [9]: 102 % of control | T/C [10]: 96 % of control | T/C [11]: 98 % of control | T/C [12]: 95 % of control

Cc1ccc(S(=O)(=O)NC(=O)Nc2cc(Cl)c(Cl)cc2C)cc1
T/C [2]: 100 % of control and 108 % of control | T/C [4]: 94 % of control and 91 % of control | T/C [5]: 97 % of control and 88 % of control | T/C [13]: 100 % of control and 110 % of control | T/C [14]: 93 % of control | T/C [9]: 94 % of control and 86 % of control | T/C [7]: 93 % of control and 96 % of control | T/C [11]: 93 % of control | T/C [15]: 100 % of control and 104 % of control

C[CH2][Pb]([Br])([CH2]C)[CH2]C
T/C (dose: 6.25 mg/kg/injection, schedule: Q01DX009 (ip), vehicle: saline with Tween-80): 103 % of control | T/C (dose: 12.5 mg/kg/injection, schedule: Q01DX009 (ip), vehicle: saline with Tween-80): 103 % of control | T/C (dose: 25.0 mg/kg/injection, schedule: Q01DX009 (ip), vehicle: saline with Tween-80): 94 % of control and 103 % of control | T/C [1]: 93 % of control | T/C [3]: 99 % of control | T/C [13]: 96 % of control

CN1CCC2(CC1)C(=O)N(Cc1ccccc1)C(=O)C2c1ccccc1 (configuration not stated)
T/C (dose: 25.0 mg/kg/injection, schedule: Q04DX002 (ip), vehicle: saline): 108 % of control | T/C (dose: 100.0 mg/kg/injection, schedule: Q04DX002 (ip), vehicle: Klucel (hydroxypropylcellulose) (HPC)): 93 % of control | T/C (dose: 100.0 mg/kg/injection, schedule: Q04DX002 (ip), vehicle: saline): 104 % of control and 118 % of control | T/C (dose: 200.0 mg/kg/injection, schedule: Q04DX002 (ip), vehicle: Klucel (hydroxypropylcellulose) (HPC)): 86 % of control

O=C(CN1CCCCC1)Nc1cccc(C(F)(F)F)c1
T/C [16]: 99 % of control | T/C (dose: 100.0 mg/kg/injection, schedule: Q04DX003 (ip), vehicle: Klucel (hydroxypropylcellulose) (HPC)): 97 % of control | T/C [17]: 100 % of control | T/C (dose: 200.0 mg/kg/injection, schedule: Q04DX003 (ip), vehicle: Klucel (hydroxypropylcellulose) (HPC)): 98 % of control | T/C (dose: 400.0 mg/kg/injection, schedule: Q01DX009 (ip), vehicle: Klucel (hydroxypropylcellulose) (HPC)): 100 % of control | T/C (dose: 400.0 mg/kg/injection, schedule: Q04DX003 (ip), vehicle: Klucel (hydroxypropylcellulose) (HPC)): 93 % of control

CC(=O)NC1(C#N)c2ccccc2-c2ccccc21
T/C (dose: 50.0 mg/kg/injection, schedule: Q01DX001 (ip), vehicle: carboxymethylcellulose (CMC)): 104 % of control | T/C [18]: 104 % of control | T/C [19]: 102 % of control | T/C [20]: 104 % of control

Cc1ccc(S(=O)(=O)OCCN(CCOS(=O)(=O)c2ccc(C)cc2)c2cccc([N+](=O)[O-])c2)cc1
T/C (dose: 50.0 mg/kg/injection, schedule: Q01DX001 (ip), vehicle: saline): 97 % of control | T/C [21]: 100 % of control | T/C [22]: 97 % of control | T/C (dose: 400.0 mg/kg/injection, schedule: Q01DX001 (ip), vehicle: saline): 88 % of control

O=C1CCCCC1Nc1ccc(Cl)cc1 (configuration not stated)
T/C [18]: 100 % of control | T/C [19]: 95 % of control | T/C [20]: 95 % of control

COC1(OC)CC2C(=O)CCCC21OC (configuration not stated)
T/C [13]: 100 % of control | T/C [7]: 93 % of control | T/C [15]: 97 % of control

CCCCNC(=O)C1CC2c3c(Br)ccc4c3C(CC2N(C)C1)CN4C(C)=O (configuration not stated)
T/C (dose: 20.0 mg/kg/injection, schedule: Q01DX001 (ip), vehicle: Klucel (hydroxypropylcellulose) (HPC)): 98 % of control

CCCCCCCCCCCCCCCCSCCCCCCCCCCCCCCCC
T/C [4]: 104 % of control | T/C [14]: 98 % of control

Cc1ccc(NC(=O)N(CCCl)N=O)cc1Cl
T/C (dose: 0.5 mg/kg/injection, schedule: Q01DX009 (ip), vehicle: carboxymethylcellulose (CMC)): 112 % of control | T/C (dose: 1.0 mg/kg/injection, schedule: Q01DX009 (ip), vehicle: carboxymethylcellulose (CMC)): 117 % of control | T/C (dose: 13.0 mg/kg/injection, schedule: Q01DX001 (ip), vehicle: carboxymethylcellulose (CMC)): 120 % of control | T/C (dose: 13.0 mg/kg/injection, schedule: Q01DX007 (ip), vehicle: carboxymethylcellulose (CMC)): 159 % of control | T/C (dose: 14.0 mg/kg/injection, schedule: Q01DX009 (ip), vehicle: carboxymethylcellulose (CMC)): 164 % of control | T/C (dose: 29.0 mg/kg/injection, schedule: Q01DX001 (ip), vehicle: other): 229 % of control | T/C (dose: 33.0 mg/kg/injection, schedule: Q01DX009 (ip), vehicle: carboxymethylcellulose (CMC)): 166 % of control | T/C (dose: 44.0 mg/kg/injection, schedule: Q01DX001 (ip), vehicle: other): 159 % of control | T/C (dose: 44.4 mg/kg/injection, schedule: Q01DX001 (ip), vehicle: carboxymethylcellulose (CMC)): 159 % of control | T/C (dose: 66.6 mg/kg/injection, schedule: Q01DX001 (ip), vehicle: carboxymethylcellulose (CMC)): 244 % of control | T/C [18]: 193 % of control | T/C (dose: 150.0 mg/kg/injection, schedule: Q01DX001 (ip), vehicle: carboxymethylcellulose (CMC)): 100 % of control

O=NN(CCCl)C(=O)NC1CSCSC1
T/C (dose: 7.0 mg/kg/injection, schedule: Q01DX001 (ip), vehicle: other): 284 % of control | T/C (dose: 10.0 mg/kg/injection, schedule: Q01DX001 (ip), vehicle: other): 322 % of control | T/C (dose: 15.0 mg/kg/injection, schedule: Q01DX001 (ip), vehicle: other): 333 % of control | T/C (dose: 25.0 mg/kg/injection, schedule: Q01DX001 (ip), vehicle: other): 168 % of control | T/C (dose: 30.0 mg/kg/injection, schedule: Q01DX001 (ip), vehicle: other): 277 % of control | T/C (dose: 45.0 mg/kg/injection, schedule: Q01DX001 (ip), vehicle: other): 107 % of control

CCOC(=O)C1SC(N)=NC1=O (configuration not stated)
T/C [6]: 94 % of control | T/C (dose: 200.0 mg/kg/injection, schedule: Q04DX003 (ip), vehicle: saline with Tween-80): 90 % of control

CC(=O)NCCN(C)C
T/C [5]: 97 % of control | T/C [8]: 103 % of control | T/C [9]: 96 % of control | T/C [10]: 101 % of control | T/C [11]: 97 % of control | T/C [12]: 97 % of control

CC(C)C1=CC23CCC4C(C)(C(=O)Cl)CCCC4(C)C2CC1C1(Br)C(=O)OC(=O)C31Br (configuration not stated)
T/C (dose: 75.0 mg/kg/injection, schedule: Q01DX001 (ip), vehicle: other): 93 % of control | T/C (dose: 150.0 mg/kg/injection, schedule: Q01DX001 (ip), vehicle: other): 88 % of control | T/C (dose: 300.0 mg/kg/injection, schedule: Q01DX001 (ip), vehicle: other): 91 % of control

O=C1CCc2cccc(O)c2N1
T/C [21]: 103 % of control | T/C [22]: 103 % of control

O=[N+]([O-])c1cccc(/C=N/NC(=S)Nc2ccccc2)c1
T/C [16]: 89 % of control | T/C [17]: 93 % of control

O=P(N1CC1)(N1CC1)N(CCCCN(Cc1ccccc1)P(=O)(N1CC1)N1CC1)Cc1ccccc1
T/C (dose: 10.0 mg/kg/injection, schedule: Q01DX001 (ip), vehicle: carboxymethylcellulose (CMC)): 104 % of control | T/C (dose: 20.0 mg/kg/injection, schedule: Q01DX001 (ip), vehicle: carboxymethylcellulose (CMC)): 101 % of control | T/C (dose: 40.0 mg/kg/injection, schedule: Q01DX001 (ip), vehicle: carboxymethylcellulose (CMC)): 104 % of control | T/C (dose: 80.0 mg/kg/injection, schedule: Q01DX001 (ip), vehicle: carboxymethylcellulose (CMC)): 106 % of control | T/C [18]: 92 % of control
